Test results reported in ChEMBL document CHEMBL1149062, “A Sesquiterpene Quinone and Hydroquinone from the Southern Australian Marine Sponge, Thorecta choanoides” (J Nat Prod, 1994).
The source made the active and inactive calls. No cut-off for these calls is given here.

System: Human immunodeficiency virus
Test: Antiviral activity against HIV assessed as inhibition of viral replication
Format: functional, organism-based

Row | SMILES | Activity
1 | COC1=CC(=O)C=C(C/C=C(\C)CC/C=C(\C)CCC=C(C)C)C1=O | inactive
2 | COc1cc(O)cc(C/C=C(\C)CC/C=C(\C)CCC=C(C)C)c1O | inactive
